# Laboratory results published in publication PMC12705485, “Aluminum-[^18F]fluoride radiolabeling of triarylphosphines for cell labeling via the perfluoroaryl azide Staudinger ligation” (EJNMMI Radiopharmacy and Chemistry, 2025).
# Read-outs that look alike come from different tables or passages of the source.
# Legend:
# [1] = Kinetic studies on the PFAA-Staudinger ligation with 1 by 1H NMR spectroscopy; settings: reaction with 1, DMSO-d6, 2.5 mM, 25 °C
# Procedure: The kinetics of the Staudinger ligation between 1 and 2a–2c (Scheme 1) were monitored by ^1H NMR spectroscopy, following spectral changes over time.
# The kinetic experiments were carried out following a published protocol (Sundhoro et al. [2017]). […] Kinetic models were evaluated by non-linear fitting corresponding to first- and second-order rate laws in Prism 10 (GraphPad, San Diego, CA, USA) as expected for the Staudinger ligation. Fitting was carried out using kinetic models based on reagent decomposition (A) or product formation (P) as shown in the equations below, depending on signal clarity and the magnitude of ^1H NMR spectral changes over time:where [A] = concentration of reactant A at time t, [A]₀ = initial concentration of reactant A (at t = 0), [P] = concentration of product P at time t, [P]₀ = maximum possible product concentration, k = rate constant and t = time elapsed.
# [2] = Stability of 2c under simulated radiolabeling conditions (HPLC); assay type: physicochemical; settings: 60 nmol AlCl3, 1:1 0.17 M NaOAc (pH 4.5):EtOH, 30 min
# Procedure: The analysis was carried out using a pentafluorophenyl (PFP) column (Kinetex 2.6 µm PFP 100 Å, LC Column 150 × 4.6 mm from Phenomenex, Torrance, CA, USA) and HPLC methods A and B (see SI). The Al^19F-complexes were isolated and analyzed using NMR and/or HRMS. The stability of 2c was also tested in the presence of 60 nmol AlCl3 in 1:1 (v/v) 0.17 M NaOAC (pH 4.5):EtOH, simulating the radiolabeling conditions.
# [3] = cited from earlier work
# Jurkat cells [4] = experiment: Flow cytometry of metabolic glycoengineering (phosphine-PEG3-biotin, streptavidin-FITC); assay type: cell-based, Human; settings: 50 µM, 72 h, then 1 µM phosphine-PEG3-biotin
# Procedure: Jurkat cells (5 × 10^5 cells in 1.5-mL complete medium per well) were seeded in a non-treated flat-bottom polystyrene 6-well plate (Avantor, Radnor, PA, USA) and incubated in triplicates (n = 3) with 50 μM of 1, 50 μM of Ac4ManNAz (Lumiprobe, Westminster, MD, USA) or 0.5% (v/v) DMSO in complete medium for 72 h in a cell incubator set at 37 °C with 5% CO2 and 95% relative humidity. After incubation, the cells for each condition were combined and washed twice with 5 mL of 1 × Dulbecco's phosphate-buffered saline (DPBS). The cell number and viability were determined using EVE™ automatic cell counter (NanoEnTek, Seoul, Korea). 1 × 10^6 cells were resuspended in 500 µL of a freshly prepared 1 × DPBS (pH 7.4) or 1 µM of phosphine-PEG3-biotin (Thermo Fisher Scientific, Waltham, MA, USA) in 1 × DPBS (n = 3), then transferred to 1.5-mL microtubes, and incubated at ambient temperature for 60 min on a rotating platform. […] After the incubation, 400 µL of FACS (fluorescence-activated cell sorting) buffer (2% FBS in DPBS) was added followed by two washings with 500 µL of FACS buffer. […] Data were analyzed using FlowJo software (FlowJo LLC, Ashland, OR, United States).
# Jurkat cells [5] = experiment: Cell viability during flow cytometry workflow (automatic cell counter / 7-AAD); assay type: cell-based, Human
# Procedure: (§1) After incubation, the cells for each condition were combined and washed twice with 5 mL of 1 × Dulbecco's phosphate-buffered saline (DPBS). The cell number and viability were determined using EVE™ automatic cell counter (NanoEnTek, Seoul, Korea). 1 × 10^6 cells were resuspended in 500 µL of a freshly prepared 1 × DPBS (pH 7.4) or 1 µM of phosphine-PEG3-biotin (Thermo Fisher Scientific, Waltham, MA, USA) in 1 × DPBS (n = 3), then transferred to 1.5-mL microtubes, and incubated at ambient temperature for 60 min on a rotating platform. Then, cells are washed twice with 1 × DPBS, resuspended in 100 µL of a freshly prepared solution of 1:200 streptavidin-fluorescein isothiocyanate (FITC) (0.1 μg, Thermo Fisher Scientific, Waltham, MA, USA) in 1 × DPBS, and incubated for 15 min in the dark on ice with mixing once manually in between. After the incubation, 400 µL of FACS (fluorescence-activated cell sorting) buffer (2% FBS in DPBS) was added followed by two washings with 500 µL of FACS buffer. During the washing step, the samples were centrifuged at 4 °C, […] for 5 min, the supernatant was removed, and the cells were resuspended in fresh buffer, followed by centrifugation. Lastly, cells were resuspended in 500 µL of FACS buffer and transferred to FACS tubes equipped with a 35 µm cell strainer cap. Dead and apoptotic cells were stained by adding 5 µL of 7-aminoactinomycin D (7-AAD) staining solution and incubating for 10 min at ambient temperature in the dark, followed by flow cytometry analysis using LSR Fortessa (BD Biosciences, Franklin Lake, NJ, USA). Unstained samples, samples stained only with streptavidin-FITC, and only with 7-AAD were used as controls. Data were analyzed using FlowJo software (FlowJo LLC, Ashland, OR, United States).
# [6] = CyQUANT LDH Cytotoxicity Assay; assay type: cell-based; settings: human, Jurkat T lymphoblasts (Clone E6-1), read-out: cell viability
# Procedure: The in vitro cytotoxicity of 1 was assessed using the CyQUANT™ LDH Cytotoxicity Assay (Invitrogen, Waltham, MA, USA), which quantifies membrane damage via extracellular lactate dehydrogenase (LDH) release. Assay reagents (Lysis Buffer, Reaction Mixture, and Stop Solution) were prepared according to the manufacturer’s protocol. Human Jurkat T lymphoblasts (Clone E6-1, ATCC TIB-152™, Manassas, VA, USA) were suspended in complete medium and mixed (1:1) with 1 in complete medium to obtain final concentrations of 10, 20, 50, 125, and 250 μM containing 0.5% v/v DMSO vehicle. Positive control for cytotoxicity (maximum LDH; cells lysed with 10 × Lysis Buffer at 1:10 v/v, prepared before each time point), negative control for cytotoxicity (spontaneous LDH; 0.5% v/v DMSO in complete medium), and complete-medium and serum-free medium blanks (background) were included. Sample-containing and control cell suspensions were plates at a density of 14,000 cells per well in 280 μL on an opaque-walled, clear-bottom 96-well plate. Plates were incubated at 37 °C, 5% CO2 in a humidified incubator for 24, 48, and 72 h. All conditions were run in quadruplicate (n = 4). […] Absorbance was measured at 490 and 680 nm on a Synergy H1 multimode microplate reader (BioTek, Winooski, VT, USA). LDH signal was calculated as Abs490 – Abs680 (background-corrected).
# % Cytotoxicity was determined as:
# [7] = Cell viability during flow cytometry workflow (automatic cell counter / 7-AAD); assay type: cell-based, Human; settings: human, Jurkat cells, 50 µM, 72 h
# Procedure: as §1
compound,measurement,setting,value
O=C(O)CN(CC(=O)O)CC(CCNC(=O)Cc1ccc(CN(CC(=O)O)[C@@H]2CCCC[C@H]2N(CC(=O)O)CC(=O)O)cc1)OC(=O)c1ccccc1P(c1ccccc1)c1ccccc1 (stereo partly drawn) [2a],second-order rate constant of PFAA-Staudinger ligation,[1],4.246 × 10^–4 M⁻1 s⁻1
O=C(O)CN(CC(=O)O)[C@@H]1CCCC[C@H]1N(CC(=O)O)Cc1ccc(CC(=O)NCCNC(=O)c2ccccc2P(c2ccccc2)c2ccccc2)cc1 [2b],first-order rate constant of PFAA-Staudinger ligation,[1],5.434 × 10^–3 s⁻1
O=C(O)CN(CC(=O)O)C1CCCCC1N(CC(=O)O)Cc1ccc(CC(=O)NC2CCC(CNC(=O)c3ccccc3P(c3ccccc3)c3ccccc3)CC2)cc1 (stereo not drawn) [2c],stability under radiolabeling conditions without radioactivity (HPLC),[2],negligible change
same,second-order rate constant of PFAA-Staudinger ligation,[1],4.071 × 10^–4 M⁻1 s⁻1
SCP(c1ccccc1)c1ccccc1 [(diphenylphosphino)methanethiol],"second-order rate constant, traceless Staudinger ligation",[3]; DMF:D2O (6:1) ref Soellner et al. [2006],7.7 × 10^–3 M^−1 s^−1
"CC(=O)OC[C@H]1OC(OC(C)=O)[C@@H](NC(=O)CN=[N+]=[N-])[C@@H](OC(C)=O)[C@@H]1OC(C)=O (stereo partly drawn) [Ac4ManNAz, Tetra-acetylated N-azidoacetylmannosamine, reference compound]",fluorescent labeling with streptavidin-FITC,Jurkat cells [4],observed
same,cell viability after 72 h of incubation,"Jurkat cells [5]; 50 µM, 72 h",96%
same,cell viability at the time of analysis,"Jurkat cells [5]; 50 µM, 72 h, after ligation and staining",79–82%
[N-]=[N+]=NCc1ccccc1 [benzyl azide],"second-order rate constant, non-traceless Staudinger ligation",[3]; ACN:H2O (19:1) ref Lin et al. [2005],2.5 × 10^–3 M^−1 s^−1
"CC(=O)OCC1OC(OC(C)=O)C(NC(=O)c2c(F)c(F)c(N=[N+]=[N-])c(F)c2F)C(OC(C)=O)C1OC(C)=O (stereo not drawn) [compound 1, tetra-acetylated PFAA-derivatized mannosamine]",viability,"[6]; concentrations up to 50 μM, 24, 48 and 72 h",> 80%
same,viability at 125 µM,"[6]; ≥ 125 μM, after 24 and 72 h of incubation",< 80%
same,fluorescent labeling with streptavidin-FITC,Jurkat cells [4],minimal/no signal
same,cell viability,"Jurkat cells [5]; 100 µM, 72 h of incubation",reduced cell viability
same,"viability at 72 h, 50 µM","[7]; after ligation and staining, read-out: cell viability at the time of analysis",77 to 80%
same,"viability at 72 h, 50 µM",[7]; read-out: cell viability after 72 h of incubation,91%
